Tested on: LDL-R-LDL-C complexes
Assay: Automated FRET imaging of LDL-C-BODIPY/LDL-C-DiI internalized into MDCK cells (organization of LDL-R/LDL-C complexes)
Type: cell-based
Procedure: MDCK cells were bound with LDL-C-BODIPY and LDL-C-DiI for 2 h at 4° C. or incubated for various times (5-8 min and 20-30 min) at 37° C. in the presence or absence of BafilomycinA 1 (BafA1), a specific vacuolar-type ATPase inhibitor. Images were collected using a LSM Zeiss 510META confocal microscope with 63×1.4NA oil lens, 512×512 pixel resolution, no filter, 2× zoom. Then images were processed using an integrated and automated ImageJ plugin, which includes background removal, PFRET algorithm, ROI selection and E % analysis (48). […]
First, images were background-subtracted and processed by PFRET software, which removed donor and acceptor SBT pixel-by-pixel on the basis of matched fluorescence levels between the double-label specimen and single-label reference specimens, using seven images; two single-label donor reference images (donor excitation/donor channel and acceptor channel); two single-label acceptor reference images (donor and acceptor excitation, both in the acceptor channel); three double-label images (donor excitation/donor and acceptor channel, acceptor excitation/acceptor emission. Elangovan et al., 2003; Wallrabe et al., 2003a,b). […] The pixel-by-pixel correction used to generate the processed FRET (PFRET) image was actually based on the average value of narrow fluorescence rangers, for more efficient running of the correction algorithm (Elangovan et al., 2003). […]

## CO/C1=C\C(C)=C\[C@@H](C)[C@@H](O)[C@@H](C)C/C(C)=C/C=C/[C@H](OC)[C@@H]([C@@H](C)[C@@H](O)[C@H](C)[C@@]2(O)C[C@@H](O)[C@H](C)[C@@H](C(C)C)O2)OC1=O [BafA1, Bafilomycin A1]
30 min internalization at 37° C., 100 nM BafA1
  organization of LDL-R-LDL-C complexes (clustered vs. random): clustered organization
LDL-C internalized at 37° C. for 30 min in the presence of 100 nM BafA1
  dependency of E % on acceptor levels: clear independency from acceptor

From patent publication US8609329B2, “FRET-based assay for screening modulators of receptor cycling” (Albany Medical College, priority 2007, dated 2013)
